System: PC3 cells
Test: Cell uptake experiments with and without SR-B1 blocking by unlabeled rHDL
Type: cell-based
Settings: for total uptake: PC-3 cells
Experimental: PC3 cells were harvested and diluted in fresh medium (1×10^5 cells/well, 0.5 mL) and then seeded in 24-well tissue culture plates. After 24 h, the medium was removed, and the cells were incubated with 100 μL/well of phosphate buffered saline (PBS) and the following treatments per well: 2 kBq of ^99mTcO4−, and 30 μL of 1 μg/μL of ^99mTc-rHDL, ^99mTc-Liposome, and ^99mTc-HYNIC-DA for 45 min at 37° C. Then, cells were rinsed two times with 0.5 mL of ice-cold PBS. These two washes were combined and represent the ^99mTcO4^−, ^99mTc-rHDL, ^99mTc-Liposome, and ^99mTc-HYNIC-DA not bounded to cells. Cells were washed with 1 mL of PBS and later were incubated twice with 0.5 mL of Glycine-HCl (50 mM, pH 2.8). The Glycine-HCl washes were combined, these washed recovered the ^99mTcO4^−, ^99mTc-rHDL, ^99mTc-Liposome, and ^99mTc-HYNIC-DA adhered or bounded to cell membrane. Cells were washed with 1 mL of PBS, and finally were washed twice with 0.5 mL of 1.0 M NaOH (lysed cells) to recover the ^99mTcO4^−, ^99mTc-rHDL, ^99mTc-Liposome, and ^99mTc-HYNIC-DA internalized in the cytoplasm (washes were combined). Radioactivity was measured in the initial PBS, Glycine-HCl and NaOH combined washes using a NaI(Tl) detector (NML Inc. USA). The initial activity of each treatment was taken to represent 100% of activity. In parallel, the nonspecific binding was determined using 30 μL of 60 μg/μL of unlabeled rHDL, which blocked SR-B1 receptors on PC3 cells.

[O]=[99Tc](=[O])(=[O])[O-] [^99m TcO4^−]
total uptake (with SR-B1 blocking): 2.9%
total uptake (without SR-B1 blocking): 2.8%
incorporation into cells (control groups, data not shown): only marginal incorporation into cells

Reference: patent US12208146B2, “Reconstituted HDL nanoparticles for delivery of radioactive agents and uses thereof” (UNIVERSITY OF NORTH TEXAS HEALTH SCIENCE CENTER, priority 2018, dated 2025)
